The data set can be described thus: Solubility in dilution solvent (PGMEA). The data set is classed as physicochemical. As to conditions: 25° C., 100 rpm, 1 hour. The protocol:
A dilution solvent (PGMEA) is respectively added to 0.5 g of each compound according to Synthesis Examples 6 to 13 and Comparative Synthesis Examples 1 and 2, and each solution is agitated with a mixrotor (Mixrotor VMR-5, Iuchi Seieido Co., Ltd.) at 25° C. and 100 rpm for 1 hour, and solubility result of each compound is provided in Table 1. Solubility Evaluation Reference Dissolution of a compound (a solute) in an amount of greater than or equal to 10 wt % based on the total weight of the dilution solvent: ∘ Dissolution of a compound (a solute) in an amount ranging from greater than or equal 5 wt % and less than 10 wt % based on the total weight of the dilution solvent: Δ Dissolution of a compound (a solute) in an amount ranging from less than 5 wt % based on the total weight of the dilution solvent: X

The values below come from patent US9581729B2, “Compound, photosensitive resin composition comprising the same and color filter” (Samsung SDI Co., Ltd., priority 2015, dated 2017).

As to `Clc1c(Cl)c2c(c(Cl)c1Oc1ccccc1)/C1=N/c3c4c(Cl)c(Cl)c(Oc5ccccc5)c(Cl)c4c4[n]3[Zn][n]3/c(c5c(Cl)c(Cl)c(Oc6ccccc6)c(Cl)c5/c3=N/C2=N1)=N\C1=NC(=N\4)/c2c(Cl)c(Oc3ccccc3)c(Cl)c(Cl)c21` [Comparative Synthesis Example 1], the Solubility entry was “Δ (Dissolution of a compound (a solute) in an amount ranging from greater than or equal 5 wt % and less than 10 wt % based on the total weight of the dilution solvent)”.
The value for `CCCCCOc1c(Cl)c(Cl)c2c(c1Cl)C1=NC/2=N\c2c3c(Cl)c(Cl)c(OCCCCC)c(Cl)c3c3[n]2[Zn][n]2/c(c4c(Cl)c(Cl)c(OCCCCC)c(Cl)c4/c2=N/1)=N\C1=NC(=N\3)/c2c(Cl)c(Cl)c(OCCCCC)c(Cl)c21` [Comparative Synthesis Example 2] was “Δ (Dissolution of a compound (a solute) in an amount ranging from greater than or equal 5 wt % and less than 10 wt % based on the total weight of the dilution solvent)”.
